Measured values published in patent US9302999B2, “Substituted triazoles as herbicides” (E. I. DU PONT DE NEMOURS AND COMPANY, priority 2012, dated 2016).

System: foxtail, green (green foxtail, Setaria viridis)
Assay: Test C pre-/postemergence: foxtail, green
Assay type: in vivo
Description: Seeds of plant species selected from blackgrass (Alopecurus myosuroides), bromegrass, downy (downy bromegrass, Bromus tectorum), foxtail, green (green foxtail, Setaria viridis), ryegrass, Italian (Italian ryegrass, Lolium multiflorum), winter wheat (Triticum aestivum), wild oat (Avena fatua), galium (catchweed bedstraw, Galium aparine), bermudagrass (Cynodon dactylon), surinam grass (Brachiaria decumbens), cocklebur (common cocklebur, Xanthium strumarium), corn (Zea mays), large crabgrass (Digitaria sanguinalis), woolly cupgrass (Eriochloa villosa), foxtail, giant (giant foxtail, Setaria faberii), goosegrass (Eleusine indica), johnsongrass (Sorghum halepense), kochia (Kochia scoparia), lambsquarters (Chenopodium album), morningglory (Ipomoea coccinea), nightshade (eastern black nightshade, Solanum ptycanthum), nutsedge, yellow (yellow nutsedge, Cyperus esculentus), pigweed (Amaranthus retroflexus), ragweed (common ragweed, Ambrosia elation), soybean (Glycine max), common (oilseed) sunflower (Helianthus annuus), Russian thistle (Salsola kali) and velvetleaf (Abutilon theophrasti) were planted into a blend of loam soil and sand and treated preemergence with test chemicals formulated in a non-phytotoxic solvent mixture which included a surfactant.
At the same time, plants selected from these crop and weed species and also barley (winter barley, Hordeum vulgare), canarygrass (Phalaris minor), chickweed (common chickweed, Stellaria media) windgrass (Apera spica-venti) and deadnettle (henbit deadnettle, Lamium amplexicaule) were planted in pots containing Redi-Earth® planting medium (Scotts Company, 14111 Scottslawn Road, Marysville, Ohio 43041) comprising spaghnum peat moss, vermiculite, wetting agent and starter nutrients and treated with postemergence applications of test chemicals formulated in the same manner. Plants ranged in height from 2 to 18 cm (1- to 4-leaf stage) for postemergence treatments.
Treated plants and controls were maintained in a greenhouse for 13 to 15 days, after which time all species were compared to controls and visually evaluated. Plant response ratings, summarized in Table C, are based on a scale of 0 to 100 where 0 is no effect and 100 is complete control. A dash (-) response means no test result.

[1] = Postemergence, 31 g ai/ha, scale 0 to 100 (0 no effect, 100 complete control)
[2] = Postemergence, 62 g ai/ha, scale 0 to 100 (0 no effect, 100 complete control)
[3] = Postemergence, 125 g ai/ha, scale 0 to 100, 0 no effect, 100 complete control

Row | Structure (SMILES) | Plant response rating, Foxtail, Green [1] | Plant response rating, Foxtail, Green [2] | Plant response rating, Foxtail, Green [3] | Plant response rating, Foxtail, Green (Postemergence, 250 g ai/ha, scale 0 to 100) | Plant response rating, Foxtail, Green (Preemergence, 31 g ai/ha, scale of 0 to 100, 0 is no effect, 100 is complete control) | Plant response rating, Foxtail, Green (Preemergence, 62 g ai/ha, scale of 0 to 100, 0 is no effect, 100 is complete control) | Plant response rating, Foxtail, Green (Preemergence, 125 g ai/ha, scale 0 to 100, 0 no effect, 100 complete control) | Plant response rating, Foxtail, Green (Preemergence, 250 g ai/ha, scale 0 to 100, 0 no effect, 100 complete control) | Plant response rating, Foxtail, Green (Postemergence, 16 g ai/ha, scale 0 to 100, 0 no effect, 100 complete control)
1 | Cc1nn(-c2ccc(C(F)(F)F)cc2)nc1Cc1ccnc(C(F)(F)F)c1 [Compound 47, 4-[[5-methyl-2-[4-(trifluoromethyl)phenyl]-2H-1,2,3-triazol-4-yl]methyl]-2-(trifluoromethyl)pyridine] | 20 | 98 | 100 | 100 | 100 | 100 | 100 | 100 | 
2 | Cc1nn(-c2ccc(C(F)(F)F)cc2)nc1Cc1cccc(C(F)(F)F)c1 [Compound 124] | 70 | 90 | 95 |  |  |  |  |  | 65
